Data reported in patent US20220257631A1, “THERAPEUTIC RNA FOR OVARIAN CANCER” (BIONTECH SE, priority 2019, published 2022).

Legend:
[1] = Respiratory safety, plethysmography (LPT No. 30283); conditions: positive control 30 mg/kg b.w.
[2] = DOTMA biodistribution, LC/MS
antigen-specific T cells = test: IFN-γ ELISPOT of splenocytes of i.v. vaccinated A2/DR1 mice; type: in vivo; conditions: 30 μg RNA(LIP) i.v., four to five vaccinations
K562-A2 cells = test: TCR specificity test, IFN-γ ELISPOT with K562-A2 cells; type: cell-based, human
[3] = tested on: CD8+ T cells of healthy donors; test: In vitro priming of CD8+ T cells with RBL005.2-transfected autologous mDCs, MHC-dextramer staining; type: cell-based, human; conditions: three rounds of weekly stimulation
human DCs = test: IFN-γ secretion of antigen-specific CD8+ T cells co-incubated with RBL005.2-electroporated DCs (Bio-plex); type: cell-based
Description: Antigen-specific CD8^+ T cells were co-incubated with DCs transfected with 0.25, 1, 4, or 16 μg […] different amounts of RBL005.2. As negative controls only effectors, or DCs transfected with irrelevant antigen coding RNA were used. Columns indicate means of two donors and biological duplicates.
In addition, we exemplarily tested the ability of the WAREHOUSE RNA drug product RBL005.2 to generate surface-expressed MHC-class I epitopes after electroporation of the RNAs into human DCs. This was determined by co-incubation of the transfected DCs for 24 h with isolated human CD8^+ T cells equipped with the α- and β-chain of a T-cell receptor (TCR) specific for the HLA-A*0201-restricted epitope […] (CLDN691.99). Activation of the antigen-specific cells was analyzed by IFN-γ Bio-plex bead assay (Bio-Rad Laboratories) of the cell culture supernatants. To consider donor variability each of the test items was analyzed using two different donors. RNA of ATM quality was used. The experiments were carried out using up to 16 μg of the RNAs to electroporate the DCs (Study Report No: STR_21591_003).

## CC(C[N+](C)(C)C)OC(N)=O.[Cl-] (stereo not drawn) [Carbamyl-β-methylcholine chloride]
[1]
  Pulmonary parameters: expected alterations

## CCCCCCCC/C=C\CCCCCCCCOCC(C[N+](C)(C)C)OCCCCCCCC/C=C\CCCCCCCC (centres unmarked) [DOTMA, 1,2-di-O-octadecenyl-3-trimethylammonium propane]
[2]; 60 μg RNA, one or two injections, 24 h
  Organ with highest DOTMA findings: highest DOTMA findings were in the spleen
[2]; single RNA(LIP), 26 μg DOTMA, up to 28 days
  DOTMA distribution: predominantly found in spleen and liver
[2]; single dose
  Factor by which DOTMA is lower in other organs/tissues than spleen and liver: 10-50

## RBL008.1: beta-S-ARCA(D1)-hAg-Kozak-sec-GS-p53-GS-MITD-2hBgUTR-A30L70 mRNA, encodes human p53 (SEQ ID NO: 7)
antigen-specific T cells
  Antigen-specific T-cell responses (IFN-γ ELISPOT): induced antigen-specific T-cell responses in vivo in mice expressing human HLA-molecules.

## RBL012.1: beta-S-ARCA(D1)-hAg-Kozak-sec-GS-PRAME-GS-MITD-2hBgUTR-A30L70 mRNA, encodes human PRAME (SEQ ID NO: 11)
antigen-specific T cells
  Antigen-specific T-cell responses (IFN-γ ELISPOT): induced antigen-specific T-cell responses in vivo in mice expressing human HLA-molecules.

B1: RBL005.2: beta-S-ARCA(D1)-hAg-Kozak-CLDN6-2hBgUTR-A30L70 mRNA, encodes human Claudin 6 (SEQ ID NO: 3) (nucleic acid)
chain: GGGCGAACUAGUAUUCUUCUGGUCCCCACAGACUCAGAGAGAACCCGCCACCAUGGCCUCUGCCGGAAUGCAGAUCCUGGGCGUGGUGCUGACCCUGCUGGGCUGGGUGAAUGGCCUGGUGAGCUGUGCCCUGCCCAUGUGGAAGGUGACAGCCUUCAUUGGCAACAGCAUUGUGGUGGCCCAGGUGGUGUGGGAGGGCCUGUGGAUGAGCUGUGUGGUGCAGAGCACAGGCCAGAUGCAGUGCAAGGUGUAUGACAGCCUGCUGGCCCUGCCUCAGGACCUCCAGGCCGCCAGAGCCCUGUGUGUGAUUGCCCUGCUGGUGGCCCUGUUUGGCCUGCUGGUGUACCUGGCUGGAGCCAAGUGCACCACCUGUGUGGAGGAGAAGGACAGCAAGGCCAGACUGGUGCUGACCUCUGGCAUUGUGUUUGUGAUCUCUGGCGUGCUGACCCUGAUCCCUGUGUGCUGGACAGCCCAUGCCAUCAUCAGAGACUUCUACAACCCUCUGGUGGCCGAGGCCCAGAAAAGAGAGCUGGGAGCCAGCCUGUACCUGGGCUGGGCCGCCUCUGGCCUUCUUCUGCUGGGAGGAGGACUGCUGUGCUGCACCUGCCCCUCUGGCGGCAGCCAGGGCCCCAGCCACUACAUGGCCAGAUACAGCACCUCUGCCCCUGCCAUCAGCAGAGGCCCUUCUGAGUACCCCACCAAGAACUAUGUGUGAGGAGGAUCCCCUCGAGAGCUCGCUUUCUUGCUGUCCAAUUUCUAUUAAAGGUUCCUUUGUUCCCUAAGUCCAACUACUAAACUGGGGGAUAUUAUGAAGGGCCUUGAGCAUCUGGAUUCUGCCUAAUAAAAAACAUUUAUUUUCAUUGCUGCGUCGAGAGCUCGCUUUCUUGCUGUCCAAUUUCUAUUAAAGGUUCCUUUGUUCCCUAAGUCCAACUACUAAACUGGGGGAUAUUAUGAAGGGCCUUGAGCAUCUGGAUUCUGCCUAAUAAAAAACAUUUAUUUUCAUUGCUGCGUCGAGACCUGGUCCAGAGUCGCUAGCAAAAAAAAAAAAAAAAAAAAAAAAAAAAAAGCAUAUGACUAAAAAAAAAAAAAAAAAAAAAAAAAAAAAAAAAAAAAAAAAAAAAAAAAAAAAAAAAAAAAAAAAAAAAA
modifications: beta-S-ARCA cap, poly(A); CLDN6 RNA
K562-A2 cells
  Recognition of RBL005.2-transfected K562-A2 cells by isolated TCR: specific recognition
[3]
  CD8+ T cells binding HLA-A*02/RBL005.2 91-99 dextramer: 0.462%
antigen-specific T cells
  Antigen-specific T-cell responses (IFN-γ ELISPOT): induced antigen-specific T-cell responses in vivo in mice expressing human HLA-molecules.
Human DCs; 0.25, 1, 4, 16 μg RNA
  Dose dependency of IFN-γ production: clear dose dependency
Human DCs; up to 16 μg RNA electroporated, 24 h, two donors
  IFN-γ production by antigen-specific CD8+ T cells: able to produce IFN-γ
